# From patent US11726079B2, “Lighting systems and methods of using lighting systems for in vitro potency assay for Photofrin” (Concordia Laboratories, Inc., priority 2012, dated 2023)
# Tested on: A549 human lung carcinoma cells
# Test: Chemotherapeutic drugs as possible positive control, 24 hour incubation with XTT endpoint
# Assay type: cell-based
# Settings: data not shown
# Procedure: The broadly active chemotherapeutics drugs SN-38 (20 μM top dose), the active metabolite of irinotecan, carboplatin (7.5 mM top dose), and paclitaxel (20 μM top dose) are tested to determine if sufficient cell killing can be achieved under the anticipated assay conditions, i.e., 24 hour incubation with XTT endpoint.
SMILES,cell killing (20 μM top dose),cell killing (7.5 mM top dose)
CCc1c2c(nc3ccc(O)cc13)-c1cc3c(c(=O)n1C2)COC(=O)[C@]3(O)CC [SN-38],None of the drugs produce sufficient cell killing,–
N.N.O=C([O-])C1(C(=O)[O-])CCC1.[Pt+2] [carboplatin],–,None of the drugs produce sufficient cell killing
CC(=O)O[C@H]1C(=O)[C@@]2(C)[C@H]([C@H](OC(=O)c3ccccc3)[C@]3(O)C[C@H](OC(=O)[C@H](O)[C@@H](NC(=O)c4ccccc4)c4ccccc4)C(C)=C1C3(C)C)[C@]1(OC(C)=O)CO[C@@H]1C[C@@H]2O [paclitaxel],None of the drugs produce sufficient cell killing,–
